Measured values reported in ChEMBL document CHEMBL5523682, “The formyl peptide receptors FPR1 and FPR2 as targets for inflammatory disorders: recent advances in the development of small-molecule agonists” (Eur J Med Chem, 2024).
One block for each compound: values may come before it.

Key:
Homo sapiens = organism: Homo sapiens; test: Selectivity ratio of EC50 for agonist activity at human FPR1 transfected in CHO cells to EC50 for agonist activity at human FPR2 transfected in CHO cells; format: cell-based
fMet-Leu-Phe receptor [1] = molecular target: T1, fMet-Leu-Phe receptor (Homo sapiens, UniProt P21462); test: Agonist activity at FPR1 (unknown origin) in HEK293 cells; format: functional, cell-based
T1 sequence (P21462 whole entry): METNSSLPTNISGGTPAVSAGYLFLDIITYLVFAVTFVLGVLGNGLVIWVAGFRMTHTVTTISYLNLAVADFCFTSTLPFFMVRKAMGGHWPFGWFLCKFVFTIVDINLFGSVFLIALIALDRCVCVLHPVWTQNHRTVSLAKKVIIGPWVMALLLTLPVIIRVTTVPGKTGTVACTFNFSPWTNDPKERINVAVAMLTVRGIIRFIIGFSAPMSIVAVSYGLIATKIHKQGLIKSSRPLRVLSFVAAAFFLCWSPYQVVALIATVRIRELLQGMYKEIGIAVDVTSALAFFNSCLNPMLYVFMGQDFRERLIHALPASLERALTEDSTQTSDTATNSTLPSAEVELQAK

[2] = molecular target: T2, N-formyl peptide receptor 2 (Homo sapiens, UniProt P25090); test: Agonist activity at human FPR2 expressed in CHO cells assessed as increase in calcium mobilization by Fluo-4 AM dye based fluorescence assay; format: functional, cell-based
T2 sequence (P25090 whole entry): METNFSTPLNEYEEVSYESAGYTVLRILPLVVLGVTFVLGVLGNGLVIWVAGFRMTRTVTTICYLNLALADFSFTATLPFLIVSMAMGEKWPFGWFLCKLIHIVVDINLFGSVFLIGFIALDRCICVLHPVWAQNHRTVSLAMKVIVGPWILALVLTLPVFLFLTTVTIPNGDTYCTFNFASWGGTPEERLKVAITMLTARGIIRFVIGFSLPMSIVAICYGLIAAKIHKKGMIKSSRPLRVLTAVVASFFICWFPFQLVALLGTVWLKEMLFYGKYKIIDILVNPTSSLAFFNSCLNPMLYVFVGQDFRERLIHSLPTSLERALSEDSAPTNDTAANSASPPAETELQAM

fMet-Leu-Phe receptor [3] = molecular target: T1, fMet-Leu-Phe receptor; test: Agonist activity at human FPR1 expressed in HL-60 cells assessed as increase in calcium mobilization by FLIPR analysis; format: functional, cell-based
[4] = molecular target: T2, N-formyl peptide receptor 2; test: Agonist activity at human FPR2 expressed in HL-60 cells assessed as inhibition of WKYMVM-induced calcium mobilization; format: functional, cell-based
[5] = molecular target: T2, N-formyl peptide receptor 2; test: Agonist activity at FPR2 (unknown origin) expressed in CHO cells by cAMP assay; format: functional, cell-based
[6] = molecular target: T2, N-formyl peptide receptor 2; test: Agonist activity at FPR2 (unknown origin) in HEK293 cells; format: functional, cell-based
[7] = molecular target: T2, N-formyl peptide receptor 2; test: Agonist activity at human FPR2 expressed in HL-60 cells assessed as increase in calcium mobilization by FLIPR analysis; format: functional, cell-based; conditions: hl-60
[8] = molecular target: T3, Formyl peptide receptor 2 (Mus musculus, UniProt O88536); test: Agonist activity at mouse FPR2
T3 sequence (O88536 whole entry): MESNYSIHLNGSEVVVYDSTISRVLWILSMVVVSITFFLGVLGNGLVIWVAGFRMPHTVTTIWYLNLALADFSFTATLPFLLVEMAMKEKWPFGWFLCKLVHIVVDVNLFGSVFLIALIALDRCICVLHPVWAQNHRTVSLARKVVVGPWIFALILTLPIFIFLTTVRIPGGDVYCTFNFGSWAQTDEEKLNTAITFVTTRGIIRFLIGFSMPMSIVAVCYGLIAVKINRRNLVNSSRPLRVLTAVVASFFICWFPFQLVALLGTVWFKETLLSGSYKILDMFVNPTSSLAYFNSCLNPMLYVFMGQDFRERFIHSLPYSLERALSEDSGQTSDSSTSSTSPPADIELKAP

fMet-Leu-Phe receptor [9] = molecular target: T1, fMet-Leu-Phe receptor; test: Agonist activity at FPR1 (unknown origin) expressed in CHO cells by cAMP assay; format: functional, cell-based
fMet-Leu-Phe receptor [10] = molecular target: T1, fMet-Leu-Phe receptor; test: Agonist activity at human FPR1 transfected in CHO cells by cAMP assay; format: functional, cell-based
[11] = molecular target: T2, N-formyl peptide receptor 2; test: Agonist activity at FPR2 (unknown origin) transfected in CHO cells by cAMP assay; format: functional, cell-based
fMet-Leu-Phe receptor [12] = molecular target: T4, fMet-Leu-Phe receptor (Mus musculus, UniProt P33766); test: Agonist activity at mouse FPR1; format: functional
T4 sequence (P33766 whole entry): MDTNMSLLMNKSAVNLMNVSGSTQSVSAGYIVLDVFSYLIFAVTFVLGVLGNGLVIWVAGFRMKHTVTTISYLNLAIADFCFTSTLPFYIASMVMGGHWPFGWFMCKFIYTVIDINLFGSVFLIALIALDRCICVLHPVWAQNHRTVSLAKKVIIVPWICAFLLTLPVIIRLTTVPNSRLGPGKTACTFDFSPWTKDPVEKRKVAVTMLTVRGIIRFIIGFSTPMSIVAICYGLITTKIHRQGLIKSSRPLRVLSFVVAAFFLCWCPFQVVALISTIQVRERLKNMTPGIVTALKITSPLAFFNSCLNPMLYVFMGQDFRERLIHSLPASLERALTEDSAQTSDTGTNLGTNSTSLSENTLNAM

[13] = molecular target: T2, N-formyl peptide receptor 2; test: Agonist activity at human FPR2; format: functional

Compound: CS(=O)(=O)c1ccccc1-c1ccc(N2CC[C@@H](NC(=O)Nc3ccc(Cl)cc3F)C2=O)c(F)c1F
- Ratio EC50 (Homo sapiens): 66

Compound: CCC1(C(C)C)NC(=O)N(CC(=O)Nc2ccc(Br)cc2)C1=O (stereo not given)
- EC50 [2]: 0.5 nM

Compound: COc1ccc(C2(CNC(=O)[C@H](Cc3c[nH]c4ccccc34)NC(=O)Nc3ccc([N+](=O)[O-])cc3)CCCCC2)nc1
- EC50 (fMet-Leu-Phe receptor [3]): 4100 nM

Compound: H-AKKVFKRLEKLFSKIQNDK-OH
- EC50 [4]: 300 nM

Compound: COc1ccc(CC(Cc2ccc3c(c2)OCO3)NC(=O)Nc2ccc(Cl)cc2)cc1 (stereo not given)
- EC50 (fMet-Leu-Phe receptor [3]): 110 nM

Compound: CP(C)(=O)c1ccccc1-c1ccc(N2CC[C@@H](NC(=O)Nc3ccc(Cl)cc3F)C2=O)c(F)c1F
- Ratio EC50 (Homo sapiens): 490

Compound: COc1cc(F)c(-c2c(NC(=O)c3ccc(OC(F)F)cc3)c(=O)n(-c3ccccc3)n2C)c(F)c1
- Ratio EC50 (Homo sapiens): 200

Compound: COc1cc(-n2c(=O)c(NC(=O)c3ccc(OC(F)F)cc3)c(-c3c(F)cc(OC)cc3F)n2C)cc(C(F)(F)F)c1
- EC50 (fMet-Leu-Phe receptor [10]): > 10 nM
- Ratio EC50 (Homo sapiens): > 1300

Compound: CCOC(=O)[C@H]1C2CCC([C@H]1C(=O)Nc1ccc(Br)cc1)C21CC1 (stereo not given in full)
- EC50 [11]: 1400 nM

Compound: COc1ccc(-n2c(-c3ccccc3)cnc2NC(=O)c2ccc(OC(F)F)cc2)cc1
- EC50 (fMet-Leu-Phe receptor [1]): 38 nM
- EC50 [6]: 3 nM

Compound: CSCC[C@H](NC=O)C(=O)N[C@@H](CC(C)C)C(=O)N[C@@H](Cc1ccccc1)C(=O)O
- EC50 (fMet-Leu-Phe receptor [12]): 23000 nM

Compound: COc1ccc(NC(=O)CSc2nc3cc(OC)ccc3[nH]2)cc1
- EC50 (fMet-Leu-Phe receptor [1]): 3700 nM
- EC50 [6]: 15 nM

Compound: Cc1ccc(NC(=O)N[C@@H]2CCCN(c3ccc(-c4ccccc4C(N)=O)cc3)C2=O)cc1
- EC50 [5]: < 5 nM

Compound: COc1ccc([C@@H]2COC(=O)[C@@H]2NC(=O)Nc2ccc(Cl)cc2)cc1 (racemic)
- EC50 [5]: 0.25 nM

Compound: COc1cc(F)c(-c2c(NC(=O)c3ccc(OC(F)F)cc3)c(=O)n(-c3ccccn3)n2C)c(F)c1
- EC50 (fMet-Leu-Phe receptor [10]): > 10 nM
- Ratio EC50 (Homo sapiens): > 630

Now from value to compound:

- EC50 (fMet-Leu-Phe receptor [1]): 4700 nM
Compound: COC(=O)c1ccc(NC(=O)CSc2nc3cc(OC)ccc3[nH]2)cc1

- EC50 [2]: 87 nM
Compound: CC[C@H](C)[C@H](NC(=O)Nc1ccc(Br)cc1F)C(=O)O

- EC50 [5]: 0.09 nM
Compound: COc1ccc([C@H]2CN(Cc3cnn(S(C)(=O)=O)c3)CC[C@@H]2NC(=O)Nc2ccc(Cl)cc2)cc1 (racemic)

- EC50 [6]: 0.3 nM
Compound: CC(=O)CCCCc1nc(NC(=O)OCc2ccccc2C)co1

- EC50 (fMet-Leu-Phe receptor [3]; hl-60): 280 nM
- EC50 [7]: 230 nM
Compound: COc1cccc(-c2csc(=O)n2CC(=O)Nc2ccc(Br)cc2)c1

- EC50 [5]: 40 nM
Compound: Cc1ccc(NC(=O)N[C@H]2CCCN(c3ccc(-c4ccccc4C(N)=O)cc3)C2=O)cc1

- EC50 [8]: 280 nM
Compound: O=C(O)[C@@H]1C2CCC([C@@H]1C(=O)Nc1ccc(Br)cc1)C21CC1 (stereo not given in full)

- EC50 [5]: < 1 nM
- EC50 (fMet-Leu-Phe receptor [9]): 1000 nM
Compound: COCCN1CC[C@H](NC(=O)Nc2ccc(Cl)cc2)[C@@H](c2c(F)cc(OC)cc2F)C1 (racemic)

- EC50 (fMet-Leu-Phe receptor [1]; hek293): 5400 nM
- EC50 ([6]; hek293): 4 nM
Compound: COc1cc(F)c(-n2c(C3CC(N)C3)cnc2NC(=O)c2ccc(OC(F)F)cc2)c(F)c1 (stereo not given)

- EC50 [5]: 5 nM
Compound: COc1ccc(NC(=O)N[C@@H]2CCCN(c3ccc(-c4ccccc4C(N)=O)cc3)C2=O)cc1

- EC50 [13]: 1.2 nM
Compound: CC/C=C\C[C@@H](O)/C=C/C=C\C[C@@H](O)/C=C/C=C/C=C\[C@@H](O)CCC(=O)O

- EC50 [5]: 0.01 nM
Compound: COc1ccc([C@@H]2CN(CCO)C(=O)[C@H]2NC(=O)Nc2ccc(Cl)cc2)cc1

- EC50 [6]: 4 nM
Compound: Cc1ccc(C2(NC(=O)[C@@H]3C4CCC([C@H]3C(=O)NCCCCN3CCCC3)C43CC3)CC2)cc1 (stereo not given in full)
